Usually LD50 stands for the dose expected to kill half of the subjects tested.

Molecules are shown by their SMILES. Structures can show the parent of a compound that is named as a salt.

Results on five compounds are retold here after patent US5288718A, “Method for decorporating radioactive isotope from living organism” (priority 1989, dated 1994).

For data set [1] the following is noted: with increasing atomic number (decreasing ionic size); cited from earlier work.
The conditions of data set [2]: Ca^2+ compared with Sr^2+; cited from earlier work.
Another data set is described as follows: Water solubility. Conditions: product of Example 1. The class given is physicochemical.
Data set [3] in a line: Lethal dose determination, intravenous, mortality within 30 days. Conditions: in vivo, DMCRYP salt×NaBr (x=2.5-8) as prepared according to Example I. The protocol:
Healing power of the composition has been evidenced by animal tests. In this way, the minimum and average lethal doses (LD0.1 and LD50, respectively) have been established.
For the determination of lethal doses, the active ingredient was administered intravenously at increasing concentrations to the animals. Minimum and average lethal doses were calculated from the mortality within 30 days. […] On every occasion, one tenth of this dose was introduced into each animal in this experiment.

A further data set is described as follows: Hygroscopicity. Conditions: sodium salt versus lithium salt. It is filed as physicochemical.
The nature of data set [4]: Whole-body retention of cerium-144 introduced peritoneally (FIG. 6, Example 6). The settings on record: female Swiss mice. The class given is in vivo. The source says:
(§1) In order to test the effect of DMCRYP on enhancing the decorporation of radiostroncium and the rare earth metal radiocerium from the body, male and female Swiss mice and Wistar rats were selected. […] In the comparative tests, a known polyaminopolycarboxylic acid-type decorporant (decorporating agent), calcium-trisodium salt of DTPA (diethylenetriaminopentacetic acid) (Heyl and Co., Berlin) was used at equimolar concentration. The amount of residual isotopes in the animal organisms was determined by whole-body activity measurements in every 1 to 4 days and was expressed as per cent of activity introduced.
Treatments were repeated twice, on the Days 2 and 4.

The nature of data set [5]: Whole-body retention of radiostroncium in skin or subcutaneous interstitial tissues (FIG. 3, Example 3). The class given is in vivo. Conditions: subcutaneous/skin isotope.
Text: as §1

Data set [6] is described as follows: Whole-body retention of Sr-85 introduced into the peritoneal cavity, female Wistar rats (FIG. 2, Example 2). The class given is in vivo. Conditions: equimolar concentration.
Text: as §1

Data set [7] in a line: Whole-body retention of Sr-85 introduced into the peritoneal cavity, mice (FIG. 1). It is filed as in vivo, Swiss mice. Conditions: equimolar concentration, isotope in peritoneal cavity.
Text: as §1

Consider `O=C(O)CN1CCOCCOCCN(CC(=O)O)CCOCCOCC1` [1,10-diaza-4,7,13,16-tetraoxacyclooctadecane-N,N'-diacetic acid], for which the “Stability constants of rare earth metal complexes, trend” value in data set [1] was “decrease with the increasing atomic number”. For the same compound, in [2], the “Relative stability of Ca^2+ and Sr^2+ complexes” value (shortened to “Relative stability”) was “identical within the experimental error”.

Take `O=C(O)C(C(=O)O)N1CCOCCOCCN(C(C(=O)O)C(=O)O)CCOCCOCC1` [DMCRYP, 1,4,10,13-tetraoxa-7,16-diazacyclooctadecane-N,N'-dimalonic acid tetrasodium salt]: the Water solubility result in the data set “Water solubility” is listed as “very soluble”. The LD50 at 720 h in [3] worked out at 1050 µmol/kg. Further, the Hygroscopicity entry in “Hygroscopicity” (listed as sodium salt) is “not hygroscopic”.

For `O=C(O)CN(CCN(CC(=O)O)CC(=O)O)CCN(CC(=O)O)CC(=O)O` [DTPA, diethylenetriaminopentacetic acid], the “Whole-body retention of cerium-144” value in [4] (Day 2, after first treatment, 100 μmole/kg i.v. 30 minutes after isotope, control 85.9) is reported as 72.8%. Also, the “Effect of second and third treatments” value in data set [4] (100 μmole/kg, Days 2 and 4) was “ineffective”. Also, in data set [5], the “Effect of treatment on whole-body retention” value is “ineffective”. Besides, the “Relative stability” value in [2] is recorded as “considerably more stable with Ca^2+ than with Sr^2+”. In addition, in [6], the “Retention values compared to control” value is listed as “lower than those in the control but the difference was not statistically significant”. In [7], the “Removal of Sr isotope from the animal body” value is “ineffective”.

With `O=C(O)CN(CCN(CC(=O)O)CC(=O)O)CC(=O)O` [EDTA, ethylenediaminetetraacetic acid], the “Relative stability” value in [2] was “considerably more stable with Ca^2+ than with Sr^2+”.

On to `O=C(O)C(C(=O)O)N1CCOCCOCCN(C(C(=O)O)C(=O)O)CCOCCOCC1` [lithium salt], for which the Hygroscopicity entry in “Hygroscopicity” is listed as “hygroscopic”.
